32 molecules from patent publication US10174052B2, “Quinuclidine compounds as α-7 nicotinic acetylcholine receptor ligands” (BRISTOL-MYERS SQUIBB COMPANY, priority 2014, dated 2019) can be followed below.

This assay addresses T1, α7 nicotinic ACh receptor ion channel expressed in mammalian HEK 293 cells (Rattus norvegicus, UniProt Q05941).
T1 construct: expressed in transfected cells
Nature of the assay: Ca2+-sensitive fluorescence-based assay for α7 nicotinic acetylcholine receptor channel function (FLIPR), agonist activity. It counts as cell-based. The protocol: II) A Ca^2+-Sensitive, Fluorescence-Based Assay α-7 for Nicotinic Acetylcholine Receptor Channel Function in Mammalian Cells (“FLIPR”).
Lead compounds are evaluated for agonist activity at the α7 nicotinic ACh receptor ion channel expressed in mammalian HEK 293 cells. Agonist potency and efficacy values are determined from kinetic fluorescence Ca^2+ influx measurements made using a 384 well FLIPR (Fluorescence Image Plate Reader). The utility of fluorescent indicators for measuring changes in intracellular divalent cation concentrations, particularly Ca^2+, for drug discovery endeavors is well documented (Rudiger, R., et al., Nature Reviews, 2003, 4:579-586; Gonzalez J. E., et al., Receptors and Channels, 2002, 8:283-295). In this assay, channel expressing HEK cell lines seeded in 384 well assay plates are loaded with a membrane permeant fluorescent Ca^2+ indicator dye, whose 510 nm green emission signal increases in response to elevation of intracellular Ca^2+ concentration. The basal fluorescence from the cells is monitored in real time, followed by the acute addition of test compounds. If the compound is an agonist at any of the non-selective cation channels, the latter open and allow the movement of extracellular Ca^2+ ions into the cell cytoplasm, where they bind to the Ca^2+ indicator dye, and produce an increase in fluorescence output signal, which is detected by a cooled CCD imaging camera.
Reagents: The acetomethoxy (AM) ester of the Ca^2+ indicator dye Fluo-4 was obtained from InVitrogen, (Carlsbad, Calif.). Acetylcholine and all buffer constituents were purchased from Sigma Chemical Company, St. Louis, Mo. G418 and Minimal Essential Medium were purchased from InVitrogen Life Technologies, Carlsbad, Calif. Fetal bovine serum was purchased from (InVitrogen, Carlsbad, Calif.).
HEK-293 cells were grown in Minimal Essential Medium containing 10% (v/v) fetal bovine serum at 37° C. in a 5% CO2 incubator. HEK-293 cells stably expressing the ion channels were grown in the same medium with the addition of 500 μg/ml G418.
HEK-293 cells expressing the ion channels of interest were plated in 384 well, black-walled, clear-bottomed, poly-D-lysine coated plates at a density of ˜20,000 cells/well in 20 μl of Minimal Essential Medium containing 10% (v/v) fetal bovine serum and incubated for 2 days at 29° C. in a 5% CO2 incubator. Prior to assay, cells were loaded with the Fluo-4 AM ester. Cell loading was accomplished by removing the culture medium and replacing it with 30 μl/well of the AM ester of the dye (5 μM) mixed with Hanks Balanced Salt Solution (#14175-095) containing 20 mM HEPES, 2.5 mM probenecid, 0.5 mM CaCl2, 1 mM MgCl2 and 10 μM atropine. Dye loading was allowed to proceed for 90 minutes at room temperature at which time the dye loading solution was removed and replaced with 40 μl/well of Hanks buffer. Cells loaded with dye were loaded onto a FLIPR384 (Molecular Devices, Sunnyvale, Calif.). Fluo-4 dye was excited using the 488 nm line of an argon laser. Emission was filtered using a 540+/−30 nm bandpass filter. For evaluation of the effects of test compounds using the Ca^2+ flux assay, compounds to be tested were provided in assay ready plates. For nicotinic receptor ion channel expressing cells, the assay was initiated by the addition of 20 μl/well of Hanks buffer containing test compounds. For all assays, data were collected at 1 Hz for 10 seconds (baseline), at which time the compound containing stimulus buffers are added, and further measurements collected at 0.33 Hz for 3 min.
The statistical robustness of the nicotinic receptor Ca^2+ flux assays is determined from blanks and totals wells. The totals wells define maximal channel activation for each compound test plate (Maximum efficacious dose of acetylcholine), and the blanks wells which contain matched DMSO only, define zero channel activation. […]

The mark [1] stands for this setting: FLIPR α7 (EC50, nM), HEK 293 cells, Ca2+ flux, agonist potency.
Setting [2] is: FLIPR α7 activity rating (EC50, nM), HEK 293 cells, Ca2+ flux, class rating of EC50.

Structures are written as SMILES. Like-named read-outs stand apart in the source and are kept apart here.

T1 sequence (Q05941 23-502): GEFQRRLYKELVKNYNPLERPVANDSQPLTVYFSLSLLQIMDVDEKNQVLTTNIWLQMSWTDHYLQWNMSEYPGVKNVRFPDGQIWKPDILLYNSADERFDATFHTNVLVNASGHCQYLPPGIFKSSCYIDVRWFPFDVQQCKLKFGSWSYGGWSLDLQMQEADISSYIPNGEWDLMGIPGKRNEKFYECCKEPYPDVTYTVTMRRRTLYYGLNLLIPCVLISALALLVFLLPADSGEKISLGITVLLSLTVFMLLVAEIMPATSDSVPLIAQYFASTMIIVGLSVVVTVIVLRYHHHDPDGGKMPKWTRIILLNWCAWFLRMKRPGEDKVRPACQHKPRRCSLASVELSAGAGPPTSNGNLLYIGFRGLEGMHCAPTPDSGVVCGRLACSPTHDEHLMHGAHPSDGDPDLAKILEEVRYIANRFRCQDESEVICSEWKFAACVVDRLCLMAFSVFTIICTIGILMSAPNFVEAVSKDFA

With `c1ccc2c(c1)nc1n2C[C@@]2(CN3CCC2CC3)O1` (single isomer, unassigned) [Example 4a], the EC50 (commonly the concentration at which the effect is half-maximal) reads like this: under setting [1], 13.6 nM; under setting [2], less than 100 nM.

Regarding `Clc1cccc2c1nc1n2C[C@@]2(CN3CCC2CC3)O1` (single isomer, unassigned) [Example 9b], the EC50 was 24.6 nM under setting [1] and less than 100 nM under setting [2].

With `COc1ccc(-c2cccc3c2nc2n3C[C@@]3(CN4CCC3CC4)O2)cc1` (single isomer, unassigned) [Example 12b], the half-maximal effective concentration (EC50) reads like this: under setting [1], 28 nM; under setting [2], less than 100 nM.

Turning to `Clc1cccc2nc3n(c12)C[C@]1(CN2CCC1CC2)O3` (single isomer, unassigned) [Example 9d], the EC50 by setting is: under setting [1], 3950 nM; under setting [2], 1000 to 100000 nM.

For `c1cncc(-c2ccc3c(c2)nc2n3C[C@@]3(CN4CCC3CC4)O2)c1` (single isomer, unassigned) [Example 13b], the EC50 under setting [1] is 634 nM and the EC50 under setting [2] lay within 100 to 1000 nM.

Consider `Cc1nc2c(cc1Br)nc1n2CC2(CN3CCC2CC3)O1` (racemic) [Example 18, 7-Bromo-6-methyl-3H-1′-azaspiro[oxazolo[2′,3′:2,3]imidazo[4,5-b]pyridine-2,3′-bicyclo[2.2.2]octane]], for which the EC50 reads like this: under setting [1], 967 nM; under setting [2], 100 to 1000 nM.

In the case of `c1ccc(-c2nc3n(n2)C[C@]2(CN4CCC2CC4)O3)cc1` [Example 14a, (S)-2-Phenyl-6H-1′-azaspiro[oxazolo[3,2-b][1,2,4]triazole-5,3′-bicyclo[2.2.2]octane]], the EC50 is 437 nM under setting [1] and 100 to 1000 nM under setting [2].

As for `Clc1cccc2nc3n(c12)C[C@@]1(CN2CCC1CC2)O3` (single isomer, unassigned) [Example 9c], the EC50 under setting [1] is 347 nM and the EC50 under setting [2] lay in the range of 100 to 1000 nM.

For the molecule `Clc1nc2n(c1Cl)C[C@]1(CN3CCC1CC3)O2` [Example 2a, (S)-5,6-Dichloro-3H-1′-azaspiro[imidazo[2,1-b]oxazole-2,3′-bicyclo[2.2.2]octane]], the EC50 runs as follows: under setting [1], 1500 nM; under setting [2], 1000 to 100000 nM.

Regarding `Clc1cnc2c(c1)nc1n2CC2(CN3CCC2CC3)O1` (racemic) [Example 20, 7-Chloro-3H-1′-azaspiro[oxazolo[2′,3′:2,3]imidazo[4,5-b]pyridine-2,3′-bicyclo[2.2.2]octane]], the EC50 was 66 nM under setting [1] and less than 100 nM under setting [2].

Consider `FC(F)(F)c1cccc2c1nc1n2C[C@]2(CN3CCC2CC3)O1` (single isomer, unassigned) [Example 11a], for which the EC50 is 32500 nM under setting [1] and 1000 to 100000 nM under setting [2].

For `Clc1nc2n(c1Cl)C[C@@]1(CN3CCC1CC3)O2` [Example 2b, (R)-5,6-Dichloro-3H-1′-azaspiro[imidazo[2,1-b]oxazole-2,3′-bicyclo[2.2.2]octane]], the EC50 was 14.2 nM under setting [1] and less than 100 nM under setting [2].

For `Brc1nc2n(n1)CC1(CN3CCC1CC3)O2` (racemic) [Example 15, 2-Bromo-6H-1′-azaspiro[oxazolo[3,2-b][1,2,4]triazole-5,3′-bicyclo[2.2.2]octane]], the EC50 is 362 nM under setting [1] and 100 to 1000 nM under setting [2].

In the case of `c1cncc(-c2ccc3c(c2)nc2n3C[C@]3(CN4CCC3CC4)O2)c1` (single isomer, unassigned) [Example 13a], the EC50 is 2990 nM under setting [1] and 1000 to 100000 nM under setting [2].

As for `FC(F)(F)c1ccc2c(c1)nc1n2C[C@@]2(CN3CCC2CC3)O1` (single isomer, unassigned) [Example 8a], the EC50 was 4.7 nM under setting [1] and less than 100 nM under setting [2].

As for `c1ccc(-c2cn3c(n2)O[C@]2(CN4CCC2CC4)C3)cc1` [Example 21b, (R)-6-Phenyl-3H-1′-azaspiro[imidazo[2,1-b]oxazole-2,3′-bicyclo[2.2.2]octane]], the EC50 is 53 nM under setting [1] and less than 100 nM under setting [2].

With `COc1ccc(-c2cccc3c2nc2n3C[C@]3(CN4CCC3CC4)O2)cc1` (single isomer, unassigned) [Example 12a], the EC50 was more than 100000 nM under setting [1] and more than 1e+06 nM under setting [2].

Take `FC(F)(F)c1ccc2c(c1)nc1n2C[C@]2(CN3CCC2CC3)O1` (single isomer, unassigned) [Example 8d]: the EC50 was 1330 nM under setting [1] and 1000 to 100000 nM under setting [2].

With `c1ccc(-c2cn3c(n2)O[C@@]2(CN4CCC2CC4)C3)cc1` [Example 21a, (S)-6-Phenyl-3H-1′-azaspiro[imidazo[2,1-b]oxazole-2,3′-bicyclo[2.2.2]octane]], the EC50 by setting is: under setting [1], 10 nM; under setting [2], less than 100 nM.

Take `Cc1c(Br)nc2n1CC1(CN3CCC1CC3)O2` (racemic) [Example 3b, 6-Bromo-5-methyl-3H-1′-azaspiro[imidazo[2,1-b]oxazole-2,3′-bicyclo[2.2.2]octane]]: the EC50 was 71.4 nM under setting [1] and less than 100 nM under setting [2].

On to `c1nc2n(n1)CC1(CN3CCC1CC3)O2` (racemic) [Example 17, 6H-1′-Azaspiro[oxazolo[3,2-b][1,2,4]triazole-5,3′-bicyclo[2.2.2]octane]], for which the concentration giving a half-maximal response (EC50) under setting [1] was 321 nM and the EC50 under setting [2] fell in the range of 100 to 1000 nM.

For the molecule `Cc1cccc2c1nc1n2C[C@@]2(CN3CCC2CC3)O1` (single isomer, unassigned) [Example 10b], the EC50 runs as follows: under setting [1], 9.1 nM; under setting [2], less than 100 nM.

As to `c1ccc(-c2nc3n(n2)C[C@@]2(CN4CCC2CC4)O3)cc1` [Example 14b, (R)-2-Phenyl-6H-1′-azaspiro[oxazolo[3,2-b][1,2,4]triazole-5,3′-bicyclo[2.2.2]octane]], the EC50 is 4.1 nM under setting [1] and less than 100 nM under setting [2].

Turning to `Brc1cnc2c(c1)nc1n2CC2(CN3CCC2CC3)O1` (racemic) [Example 19, 7-Bromo-3H-1′-azaspiro[oxazolo[2′,3′:2,3]imidazo[4,5-b]pyridine-2,3′-bicyclo[2.2.2]octane]], the EC50 reads like this: under setting [1], 49 nM; under setting [2], less than 100 nM.

Take `c1ccc2c(c1)nc1n2C[C@]2(CN3CCC2CC3)O1` (single isomer, unassigned) [Example 4b]: the EC50 is 6660 nM under setting [1] and 1000 to 100000 nM under setting [2].

Turning to `Cc1cc2nc3n(c2cc1C)C[C@]1(CN2CCC1CC2)O3` (single isomer, unassigned) [Example 5b], the EC50 is, setting by setting: under setting [1], more than 100000 nM; under setting [2], more than 1e+06 nM.

Turning to `Cc1nc2n(c1Br)CC1(CN3CCC1CC3)O2` (racemic) [Example 3a, 5-Bromo-6-methyl-3H-1′-azaspiro[imidazo[2,1-b]oxazole-2,3′-bicyclo[2.2.2]octane]], the EC50 reads like this: under setting [1], 36.1 nM; under setting [2], less than 100 nM.

On to `COc1ccc2c(c1)nc1n2C[C@]2(CN3CCC2CC3)O1` (single isomer, unassigned) [Example 6a], for which the EC50 runs as follows: under setting [1], 1430 nM; under setting [2], 1000 to 100000 nM.

In turn, `Cc1ccc2nc3n(c2c1)C[C@@]1(CN2CCC1CC2)O3` (single isomer, unassigned) [Example 7a] displayed an EC50 under setting [1] of 35 nM and an EC50 under setting [2] of less than 100 nM.

On to `Cc1cccc2c1nc1n2C[C@]2(CN3CCC2CC3)O1` (single isomer, unassigned) [Example 10a], for which the EC50 runs as follows: under setting [1], 263 nM; under setting [2], 100 to 1000 nM.

For `FC(F)(F)c1cccc2c1nc1n2C[C@@]2(CN3CCC2CC3)O1` (single isomer, unassigned) [Example 11b], the EC50 is 22 nM under setting [1] and less than 100 nM under setting [2].

`FC(F)(F)c1ccc2nc3n(c2c1)C[C@@]1(CN2CCC1CC2)O3` (single isomer, unassigned) [Example 8b] displayed an EC50 of 7190 nM. This molecule also returned an EC50 under setting [2] of 1000 to 100000 nM.
